The test system of the series is human recombinant carboxylesterases. The series is described as follows: In vitro metabolic stability (rate of metabolite formation) in human recombinant carboxylesterases. It counts as in vitro ADME. The conditions noted are these: human recombinant carboxylesterases 0.1 mg/mL, 1 μM test compound, pH 6.0, 37° C. How it is done: Dutch Belted rabbits were euthanized with an overdose of sodium pentobarbital. The corneas were collected and homogenized in ice-cold potassium chloride solution (pH=7.4). The homogenate was centrifuged at 755×g for 30 min at 4° C. and aliquots of the supernatant were stored at or below −70° C. until metabolism experiments were conducted. Prior to storing the homogenates an aliquot was removed for determination of protein concentrations by calculating the 260 nm absorbance using a spectrophotometer. Human recombinant carboxylesterases were purchased from a commercial vendor (BD Gentest™, Bedford, Mass.)
All metabolic stability experiments were performed in triplicate in 96-well plate format. The final incubation mixture contained 1 μM test compound, 0.3 mg/mL corneal protein homogenate or 0.1 mg/mL human recombinant carboxylesterase mixture in a final volume of 0.5 mL 0.1 M potassium phosphate buffer (pH=6.0). The final percentage of solvent in the incubation was less than 1.0% to prevent inhibition of enzymatic activity. Following a pre-incubation at 37° C., test article (i.e. ester linked hybrids) was added to initiate the reaction. At designated time points (typically less than 60 minutes to capture the linear range of metabolite formation), 0.05 mL aliquots were removed from the incubation mixtures using a clean pipet tip and immediately placed in organic solvent to stop any esterase activity.
Hydrolysis of the metabolites was confirmed to be due to esterase activity and not chemical lability. The samples were analyzed by liquid chromatography with mass spectrometry (LC-MS/MS) detection to determine the metabolite concentrations resulting from the metabolism of ester linked hybrids. Internal standards were used to compensate for variability from sample processing, chromatographic elution, mass spectrometer response and ion suppression by matrix components.

Regarding `COc1c(N2CCN(C(=O)OCOC(=O)CCC(=O)OCC(=O)[C@@]3(O)[C@@H](C)CC4C5CCC6=CC(=O)C=C[C@]6(C)[C@@]5(F)[C@@H](O)C[C@@]43C)C(C)C2)c(F)cc2c(=O)c(C(=O)O)cn(C3CC3)c12` (relative stereo) [Compound 2, rel-1-cyclopropyl-6-fluoro-7-[4-({[(4-{2-[(9R,10S,11S,13S,16S,17R)-9-fluoro-11,17-dihydroxy-10,13,16-trimethyl-3-oxo-6,7,8,9,10,11,12,13,14,15,16,17-dodecahydro-3H-cyclopenta[a]phenanthren-17-yl]-2-oxoethoxy}-4-oxobutanoyl)oxy]methoxy}carbonyl)-3-methylpiperazin-1-yl]-8-methoxy-4-oxo-1,4-dihydroquinoline-3-carboxylic acid], the “Rate of formation Metabolite 1 (Betamethasone)” value (metabolite Betamethasone) was 109 ± 2 nM/min/mg. Further, under “metabolite Gatifloxacin”, the “Rate of formation Metabolite 2 (Gatifloxacin)” value is recorded as 112 ± 4 nM/min/mg.
As for `COc1c(N2CCN(C(=O)OCOC(=O)CCC(=O)OCC(=O)[C@@]3(O)[C@H](C)CC4C5CCC6=CC(=O)C=C[C@]6(C)[C@@]5(F)[C@@H](O)C[C@@]43C)C(C)C2)c(F)cc2c(=O)c(C(=O)O)cn(C3CC3)c12` (relative stereo) [Compound 11, rel-1-cyclopropyl-6-fluoro-7-[4-({[(4-{2-[(9R,10S,11S,13S,16R,17R)-9-fluoro-11,17-dihydroxy-10,13,16-trimethyl-3-oxo-6,7,8,9,10,11,12,13,14,15,16,17-dodecahydro-3H-cyclopenta[a]phenanthren-17-yl]-2-oxoethoxy}-4-oxobutanoyl)oxy]methoxy}carbonyl)-3-methylpiperazin-1-yl]-8-methoxy-4-oxo-1,4-dihydroquinoline-3-carboxylic acid], the “Rate of formation Metabolite 1 (Dexamethasone)” value (shortened to “Rate … (Dexamethasone)”) came to 44.5 ± 2.62 nM/min/mg. Moreover, the “Rate of formation Metabolite 2 (Gatifloxacin)” value (metabolite Gatifloxacin) came out at 56 ± 2.1 nM/min/mg.
Regarding `COc1c(N2CCNC(C)C2)c(F)cc2c(=O)c(C(=O)OCCCOC(=O)CCC(=O)OCC(=O)[C@]3(O)[C@@H](C)C[C@@H]4[C@H]5CCC6=CC(=O)C=C[C@@]6(C)[C@]5(F)[C@H](O)C[C@]43C)cn(C3CC3)c12` (relative stereo) [Compound 18, 3-({[1-cyclopropyl-6-fluoro-8-methoxy-7-(3-methylpiperazin-1-yl)-4-oxo-1,4-dihydroquinolin-3-yl]carbonyl}oxy)propyl 2-[(8R,9S,10R,11R,13R,14R,16S,17S)-9-fluoro-11,17-dihydroxy-10,13,16-trimethyl-3-oxo-6,7,8,9,10,11,12,13,14,15,16,17-dodecahydro-3H-cyclopenta[a]phenanthren-17-yl]-2-oxoethyl rel-butanedioate], the “Rate … (Dexamethasone)” value is 59.7 ± 5.15 nM/min/mg. For the same compound, for the setting “metabolite Gatifloxacin”, the “Rate of formation Metabolite 2 (Gatifloxacin)” value is 2.44 ± 0.87 nM/min/mg.
For the compound `COc1c(N2CCN(C(=O)OCOC(=O)CCC(=O)N[C@@H](C(=O)OCC(=O)[C@]3(O)CCC4C5CCC6=CC(=O)C=C[C@@]6(C)C5[C@H](O)C[C@]43C)C(C)C)C(C)C2)c(F)cc2c(=O)c(C(=O)O)cn(C3CC3)c12` (relative stereo) [Compound 29, rel-1-cyclopropyl-7-{4-[(10R)-14-[(10S,11R,13R,17S)-11,17-dihydroxy-10,13-dimethyl-3-oxo-6,7,8,9,10,11,12,13,14,15,16,17-dodecahydro-3H-cyclopenta[a]phenanthren-17-yl]-5,8,11,14-tetraoxo-10-(propan-2-yl)-2,4,12-trioxa-9-azatetradecan-1-oyl]-3-methylpiperazin-1-yl}-6-fluoro-8-methoxy-4-oxo-1,4-dihydroquinoline-3-carboxylic acid], for the setting “metabolite Gatifloxacin”, the “Rate of formation Metabolite 2 (Gatifloxacin)” value came to 36.5 ± 1.1 nM/min/mg. Also, the “Rate of formation Metabolite 1 (Prednisolone)” value (metabolite Prednisolone) amounted to 17.3 ± 0.1 nM/min/mg.
As for `COc1c(N2CCNC(C)C2)c(F)cc2c(=O)c(C(=O)OCCCC(=O)OCC(=O)[C@]3(O)CC[C@@H]4[C@H]5CCC6=CC(=O)C=C[C@@]6(C)C5[C@H](O)C[C@]43C)cn(C3CC3)c12` (relative stereo) [Compound 41, 4-{2-[(8R,10S,11R,13R,14R,17S)-11,17-dihydroxy-10,13-dimethyl-3-oxo-6,7,8,9,10,11,12,13,14,15,16,17-dodecahydro-3H-cyclopenta[a]phenanthren-17-yl]-2-oxoethoxy}-4-oxobutyl rel-1-cyclopropyl-6-fluoro-8-methoxy-7-(3-methylpiperazin-1-yl)-4-oxo-1,4-dihydroquinoline-3-carboxylate], the “Rate of formation Metabolite 1 (Gatifloxacin)” value (metabolite Gatifloxacin) is given as 7.60 ± 2.1 nM/min/mg. For the same compound, the “Rate of formation Metabolite 2 (Prednisolone)” value (metabolite Prednisolone) was 74.6 ± 4.1 nM/min/mg.
In the case of `COc1c(N2CCNC(C)C2)c(F)cc2c(=O)c(C(=O)OCOC(=O)OCC(=O)[C@]3(O)CC[C@@H]4[C@H]5CCC6=CC(=O)C=C[C@@]6(C)C5[C@H](O)C[C@]43C)cn(C3CC3)c12` (relative stereo) [Compound 42, [({2-[(8R,10S,11R,13R,14R,17S)-11,17-dihydroxy-10,13-dimethyl-3-oxo-6,7,8,9,10,11,12,13,14,15,16,17-dodecahydro-3H-cyclopenta[a]phenanthren-17-yl]-2-oxoethoxy}carbonyl)oxy]methyl rel-1-cyclopropyl-6-fluoro-8-methoxy-7-(3-methylpiperazin-1-yl)-4-oxo-1,4-dihydroquinoline-3-carboxylate], the “Rate of formation Metabolite 2 (Gatifloxacin)” value (metabolite Gatifloxacin) stood at 668 ± 102 nM/min/mg. Further, under “metabolite Prednisolone”, the “Rate of formation Metabolite 1 (Prednisolone)” value stood at 633 ± 85 nM/min/mg.
On to `COc1c(N2CCNC(C)C2)c(F)cc2c(=O)c(C(=O)OC(C)OC(=O)OCC(=O)[C@]3(O)CC[C@@H]4[C@H]5CCC6=CC(=O)C=C[C@@]6(C)C5[C@H](O)C[C@]43C)cn(C3CC3)c12` (relative stereo) [Compound 43, 1-[({2-[(8R,10S,11R,13R,14R,17S)-11,17-dihydroxy-10,13-dimethyl-3-oxo-6,7,8,9,10,11,12,13,14,15,16,17-dodecahydro-3H-cyclopenta[a]phenanthren-17-yl]-2-oxoethoxy}carbonyl)oxy]ethyl rel-1-cyclopropyl-6-fluoro-8-methoxy-7-(3-methylpiperazin-1-yl)-4-oxo-1,4-dihydroquinoline-3-carboxylate], for which the “Rate of formation Metabolite 2 (Gatifloxacin)” value (metabolite Gatifloxacin) came out at 419 ± 8 nM/min/mg. In addition, where the note is “metabolite Prednisolone”, the “Rate of formation Metabolite 1 (Prednisolone)” value was 298 ± 13 nM/min/mg.
Take `COc1c(N2CCNC(C)C2)c(F)cc2c(=O)c(C(=O)OCOC(=O)CCC(=O)OCC(=O)[C@]3(O)CC[C@@H]4[C@H]5CCC6=CC(=O)C=C[C@@]6(C)C5[C@H](O)C[C@]43C)cn(C3CC3)c12` (relative stereo) [Compound 44, ({[1-cyclopropyl-6-fluoro-8-methoxy-7-(3-methylpiperazin-1-yl)-4-oxo-1,4-dihydroquinolin-3-yl]carbonyl}oxy)methyl 2-[(8R,10S,11R,13R,14R,17S)-11,17-dihydroxy-10,13-dimethyl-3-oxo-6,7,8,9,10,11,12,13,14,15,16,17-dodecahydro-3H-cyclopenta[a]phenanthren-17-yl]-2-oxoethyl rel-butanedioate]: the “Rate of formation Metabolite 2 (Gatifloxacin)” value (metabolite Gatifloxacin) turned out to be 760 ± 110 nM/min/mg. Moreover, under “metabolite Prednisolone”, the “Rate of formation Metabolite 1 (Prednisolone)” value worked out at 365 ± 32 nM/min/mg.
Take `COc1c(N2C[C@H]3CCCN[C@H]3C2)c(F)cc2c(=O)c(C(=O)OCCCOC(=O)c3ccc(C(=O)OCC(=O)[C@@]4(O)[C@H](C)C[C@H]5[C@@H]6CCC7=CC(=O)C=C[C@]7(C)[C@@]6(F)[C@@H](O)C[C@@]54C)cc3)cn(C3CC3)c12` (relative stereo) [Compound 54, 3-[({1-cyclopropyl-6-fluoro-8-methoxy-7-[(4aR,7aR)-octahydro-6H-pyrrolo[3,4-b]pyridin-6-yl]-4-oxo-1,4-dihydroquinolin-3-yl}carbonyl)oxy]propyl 2-[(8S,9R,10S,11S,13S,14S,16R,17R)-9-fluoro-11,17-dihydroxy-10,13,16-trimethyl-3-oxo-6,7,8,9,10,11,12,13,14,15,16,17-dodecahydro-3H-cyclopenta[a]phenanthren-17-yl]-2-oxoethyl rel-benzene-1,4-dicarboxylate]: the “Rate … (Dexamethasone)” value stood at 67.8 ± 1.78 nM/min/mg and the “Rate of formation Metabolite 2 (Moxifloxacin)” value worked out at 0.717 ± 0.625 nM/min/mg.
For the compound `COc1c(N2CC3CCCN(C(=O)OCOC(=O)CCC(=O)OCC(=O)[C@]4(O)CC[C@@H]5[C@H]6CCC7=CC(=O)C=C[C@@]7(C)[C@@H]6[C@H](O)C[C@]54C)C3C2)c(F)cc2c(=O)c(C(=O)O)cn(C3CC3)c12` (relative stereo) [Compound 59, rel-1-cyclopropyl-7-[1-({[(4-{2-[(8R,9R,10S,11R,13R,14R,17S)-11,17-dihydroxy-10,13-dimethyl-3-oxo-6,7,8,9,10,11,12,13,14,15,16,17-dodecahydro-3H-cyclopenta[a]phenanthren-17-yl]-2-oxoethoxy}-4-oxobutanoyl)oxy]methoxy}carbonyl)octahydro-6H-pyrrolo[3,4-b]pyridin-6-yl]-6-fluoro-8-methoxy-4-oxo-1,4-dihydroquinoline-3-carboxylic acid], the “Rate of formation Metabolite 2 (Moxifloxacin)” value is reported as 350 ± 180 nM/min/mg. In addition, for the setting “metabolite Prednisolone”, the “Rate of formation Metabolite 1 (Prednisolone)” value was 416 ± 192 nM/min/mg.
